Measurements as given in patent EP4763845A1, “CYANO AROMATIC RING DERIVATIVE AND PHARMACEUTICAL USE THEREOF” (Haisco Pharmaceutical Group Co., Ltd., priority 2023, dated 2025).

How the values were obtained:
[1] = tested on: Human CD34+ Hematopoietic stem cells; test: Human CD34+ hematopoietic stem cell proliferation inhibition experiment; format: cell-based; settings: 168 h, inhibitory activity against the proliferation of CD34+ hematopoietic stem cells, 7 days
Description: Human CD34+ Hematopoietic stem cells (TPCS, Cat.hmPB34-P-2CW) are CD34-positive stem cells obtained from human PBMCs through immunomagnetic bead sorting. The culture conditions are as follows: DPBS (Gibco, Cat.14190-144) +StemSpan SFEM II ([…], Cat.9655) +1X StemSpan CD34+ Expansion Supplement ([…], Cat.2691). First, 40 nL of DMSO, the positive reference compound Talazoparib, or the test compounds were respectively added to a 384-well plate (Corning, Cat. 3764). Then, a cell suspension was added at 400 cells per well in 40 µL of medium, resulting in final concentrations of 0.1% DMSO, 3 µM Talazoparib, or various concentrations of the compounds in each well. The plate was centrifuged at room temperature at 1000 rpm for 1 minute, followed by incubation for 7 days in a 37°C, 5% CO2 incubator. Following incubation, 20 µL of CellTiter-Glo Reagent (Promega, Cat. G7573) was directly added to each well, and the plate was centrifuged at room temperature at 1000 rpm for 1 minute, followed by incubation for 20 minutes in the dark. Following incubation, the chemiluminescent signal (CFU) was read and recorded using an Envision multimode microplate reader (PerkinElmer, Cat. 2104). The cell proliferation inhibition rate at various compound concentrations was calculated according to Equation (3), where CFUhigh control represents the average signal value of the DMSO group, CFUlow control represents the average signal value of the Talazoparib group, and CFUcompound represents the average signal value of the compound-treated group. The processed data obtained from Equation (3) were analysed using XLfit or GraphPad Prism software, and a four-parameter curve fitting model was applied to calculate the compound concentration corresponding to a 50% inhibition rate, i.e., the IC50 value. Inhibition% = (CFUhigh control−CFUcompound)/(CFUhigh control−CFUlow control) × 100% [formula]

AR protein = target: T1, AR protein (Homo sapiens, UniProt P10275); test: Detection of AR degradation in VCaP cells (automated western blot); format: cell-based; settings: degradation of AR protein in VCaP cells, 24 hours incubation; read-out: DC50
T1 construct: VCap is a human prostate cancer cell line purchased from ATCC; host or cells: VCaP human prostate cancer cells
T1 sequence (P10275 1-920): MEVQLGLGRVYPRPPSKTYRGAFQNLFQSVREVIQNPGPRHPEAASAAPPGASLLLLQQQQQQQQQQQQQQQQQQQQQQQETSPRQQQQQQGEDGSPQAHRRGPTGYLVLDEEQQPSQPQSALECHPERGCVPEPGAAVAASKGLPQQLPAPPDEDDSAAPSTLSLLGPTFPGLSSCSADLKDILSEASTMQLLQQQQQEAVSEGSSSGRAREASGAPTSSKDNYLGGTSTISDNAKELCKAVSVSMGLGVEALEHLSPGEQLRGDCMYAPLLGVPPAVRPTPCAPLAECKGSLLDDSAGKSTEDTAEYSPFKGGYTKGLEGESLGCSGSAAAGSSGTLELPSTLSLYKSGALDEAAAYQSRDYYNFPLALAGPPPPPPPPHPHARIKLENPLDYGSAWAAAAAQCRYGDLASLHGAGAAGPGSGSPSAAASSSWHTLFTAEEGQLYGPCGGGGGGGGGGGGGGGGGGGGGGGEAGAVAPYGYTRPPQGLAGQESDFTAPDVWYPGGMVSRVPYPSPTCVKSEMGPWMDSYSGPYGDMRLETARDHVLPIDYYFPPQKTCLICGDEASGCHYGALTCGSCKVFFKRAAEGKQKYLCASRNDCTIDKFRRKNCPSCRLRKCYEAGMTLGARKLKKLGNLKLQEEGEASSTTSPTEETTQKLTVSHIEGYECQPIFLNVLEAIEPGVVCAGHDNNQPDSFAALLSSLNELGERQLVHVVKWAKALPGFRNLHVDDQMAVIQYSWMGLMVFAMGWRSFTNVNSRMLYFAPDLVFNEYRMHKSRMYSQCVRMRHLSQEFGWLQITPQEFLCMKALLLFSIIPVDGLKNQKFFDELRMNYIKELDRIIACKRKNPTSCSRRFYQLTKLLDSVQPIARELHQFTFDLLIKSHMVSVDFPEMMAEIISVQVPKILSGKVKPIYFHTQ
In short: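 VCaP cells (5 × 10^5/well) were treated with compounds at various concentrations for 24 h at 37°C. Lysate AR level was quantified by automated capillary western blot, normalised to β-actin and expressed relative to solvent control. DC50 came from four-parameter nonlinear regression; degradation rate = 100 − AR%.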

CC1(C)[C@H](NC(=O)c2ccc(N3CCC(CN4CCN5c6cc(F)c(C7CCC(=O)NC7=O)cc6CC[C@H]5C4)CC3)cc2)C(C)(C)[C@H]1Oc1ccc(C#N)c2ncccc12 (some centres unmarked) [Compound 31]
IC50 [1]: > 10 µM | DC50 (AR protein): < 0.1 µM
